# Patent publication US4954514A, “(Di-tert-butylhydroxyphenyl)thio derivatives and antiarterioschlerosis compositions thereof” (Shionogi & Co, Ltd, priority 1989, dated 1990)
# What was measured:
# [1] = tested on: hydrochloric acid ethanol-induced gastric ulcer; experiment: Effect against hydrochloric acid ethanol-induced gastric ulcer; type: in vivo, male JCD-SD rats; conditions: rat, oral, 30 minutes before hydrochloric acid-ethanol; from lesion index; dose not given
# Experimental: Effect against hydrochloric acid ethanol-induced gastric ulcer.
# To male JCD-SD rats (weight: 220-275 g) which have been fasted for 24 hours was administered orally 1 ml of 150 mM hydrochloric acid - 60% ethanol. After an hour, the stomachs were excised. The ulcer size as determined by measuring the length of each lesion under stereoscopic microscope and the sum of individual lesion length is expressed as lesion index. The vehicle (1% to 10% ethanol) and the test compounds were administered orally 30 minutes before the hydrochloric acid -ethanol administration. The percent suppression was calculated from the lesion indexes of treated versus untreated animals.
# [2] = tested on: peroxidized lipid in a homogenate of rat brain; experiment: Suppression on production of peroxidized lipid in a homogenate of rat brain (thiobarbituric acid (TBA) method); type: biochemical, SD strain rats; conditions: final concentration 0.01 mM, 37° C., 30 minutes, % of vehicle control
# Experimental: Suppression on production of peroxidized lipid in a homogenate of rat brain:
# SD strain rats (body weight, about 200 g) were sacrificed by cutting down their heads, and the brains were taken out. The brains were homogenated with a 4-fold amount of 0.05M phosphate-sodium chloride buffer (pH 7.4) and centrifuged at 1000×g for 10 minutes. The supernatant was kept at -80° C. for storage.
# The supernatant was diluted with a 2-fold amount of the same phosphate - sodium chloride buffer as above, and 0.48 ml of the dilution was combined with 30 μl of ethanol per se (vehicle) or ethanol solution containing a test compound (final concentration: 0.01 mM), followed by incubation at 37° C. for 30 minutes. The reaction was terminated by addition of 0.01% butylhydroxytoluene (BHT) in ethanol (20 μl) and 25% metaphosphoric acid (125 μl) and subjected to elimination of proteins. The peroxidized lipid in the supernatant was measured by the thiobarbituric acid (TBA) method according to the description in Ohkawa et al.: Anal. Biochem., vol. 95, page 351 (1979). The amount of peroxidized lipid produced was compared with that in the vehicle applied group and expressed in % control.
Structure (SMILES),Inhibitory Rate (Expressed in % to Control) [1] [%],Peroxidized Lipid Produced (Expressed in % to Control) [2] [%]
"CC(C)(C)c1cc(SCCCC#N)cc(C(C)(C)C)c1O [Ia, 4-(3,5-Di-tert-butyl-4-hydroxy)phenylthiobutylonitrile]",94.3 ± 14.8,4.5
"CC(C)(C)c1cc(SCCCCC#N)cc(C(C)(C)C)c1O [Ib, 5-(3,5-Di-tert-butyl-4-hydroxy)phenylthiopentanonitrile]",61.2 ± 18.4,3.6
"CC(C)(C)c1cc(SCCCCCC#N)cc(C(C)(C)C)c1O [Ic, 6-(3,5-Di-tert-butyl-4-hydroxy)phenylthiohexanonitrile]",19.2 ± 8.4,9.2
"CC(C)(C)c1cc(SCCCCCCC#N)cc(C(C)(C)C)c1O [Id, 7-(3,5-Di-tert-butyl-4-hydroxy)phenylthioheptanonitrile]",77.3 ± 16.8,5.4
"CC(C)(C)c1cc(SCCc2nnn[nH]2)cc(C(C)(C)C)c1O [Ie, 5-[2-(3,5-Di-tert-butyl-4-hydroxy)phenylthioethyl]tetrazole]",37.2 ± 5.9,8.1
"CC(C)(C)c1cc(SCCCc2nnn[nH]2)cc(C(C)(C)C)c1O [If, 5-[3-(3,5-Di-tert-butyl-4-hydroxy)phenylthiopropyl]tetrazole]",52.1 ± 20.0,5.7
"CC(C)(C)c1cc(SCCCCc2nnn[nH]2)cc(C(C)(C)C)c1O [Ig, 5-[4-(3,5-Di-tert-butyl-4-hydroxy)phenylthiobutyl]tetrazole]",49.2 ± 13.0,4.1
"CC(C)(C)c1cc(SCCCCCc2nnn[nH]2)cc(C(C)(C)C)c1O [Ih, 5-[5-(3,5-Di-tert-butyl-4-hydroxy)phenylthiopentyl]tetrazole]",52.5 ± 16.6,9.5
"CC(C)(C)c1cc(SCCCCCCc2nnn[nH]2)cc(C(C)(C)C)c1O [Ii, 5-[6-(3,5-Di-tert-butyl-4-hydroxy)phenylthiohexyl]tetrazole]",46.6 ± 13.4,4.4
"CC(C)(C)c1cc(SCCCCCC(N)=O)cc(C(C)(C)C)c1O [Ij, 6-(3,5-Di-tert-butyl-4-hydroxy)phenylthiohexanamide]",70.8 ± 8.5,4.7
"CC(C)(Sc1cc(C(C)(C)C)c(O)c(C(C)(C)C)c1)Sc1cc(C(C)(C)C)c(O)c(C(C)(C)C)c1 [Probucol, reference compound]",75.4 ± 22.1,58.3
